Assay results from patent US11826402B2, “Combination therapy involving antibodies against claudin 18.2 for treatment of metastatic pancreatic adenocarcinoma” (Astellas Pharma Inc., priority 2013, dated 2023).

Experiments:
Format in all cases: cell-based, human
[1] = tested on: Kato III cells; assay: Cell cycle analysis of gastric cancer cells with cytostatic compounds
Method: Kato III cells, a human gastric tumor cell line, was cultivated in RPMI 1640 medium (Invitrogen) containing 20% FCS (Perbio) and 2 mM Glutamax (Invitrogen) at 37° C. and 5% CO2, with or without cytostatic compounds. 5-FU (Neofluor from NeoCorp AG) was tested at a concentration of 10 or 100 ng/ml, and oxaliplatin (Hospira) was tested at a concentration of 50 or 500 ng/ml. […] Cells were harvested with EDTA/trypsin, washed and analysed.
Cell cycle stages were determined based on measurement of cellular DNA content. This allows one to discriminate between cells in the G1-, S- or G2-phase of the cell cycle. In the S-phase DNA duplication occurs whereas in the G2-phase cells grow and prepare for mitosis. Cell cycle analysis was done using the CycleTEST PLUS DNA Reagent Kit from BD Biosciences following the manufacturer's protocol. Flow cytometry acquisition and analysis were performed by using BD FACS CantoII (BD Biosciences) and FlowJo (Tree Star) software.
Kato III cells were pretreated for 4 days with Irinotecan or Docetaxel and analysed for CLDN18.2 expression and cell cycle arrest.

[2] = tested on: KATO-III; assay: IMAB362-induced ADCC on gastric cancer cells, also after chemotherapy pretreatment; settings: Kato III pretreated 3 days; Irinotecan 1000 ng/ml, Docetaxel 5 ng/ml, Cisplatin 2000 ng/ml
Method: Peripheral blood mononuclear cells (PBMCs) including NK cells, monocytes, […] or other effector cells from healthy human donors were purified by Ficoll Hypaque density centrifugation. Washed effector cells were seeded in X-Vivo medium. Kato III cells which express CLDN18.2 endogenously and are of gastric origin were used as target cells in this setting. Target cells stably expressed luciferase, lucifer yellow, which is oxidized by viable cells only.

[3] = tested on: Kato III cells; assay: Kato III cells pretreated with cytostatic compounds: cell growth, viable cells, CLDN18.2 expression; settings: for claudin18.2 expression versus medium cultivated cells / level of viable cells versus medium cultivated cells: Kato III pretreated 3 days, Irinotecan 1000 ng/ml, Docetaxel 5 ng/ml, Cisplatin 2000 ng/ml; for cell growth: Kato III pretreated for 4 days
[4] = tested on: MiaPaCa-2-LVT; assay: Inhibition of proliferation (XTT viability assay, 4 days)
Method: To analyze dose-response curves of each chemotherapeutic agent, a proliferation assay was performed.
Cells were seeded in 96 well plates and after 4-6 hours gemcitabine or oxaliplatin was added in following concentrations: 1000, 500, 250, 100 and 20 ng/ml. The proliferation assay was incubated for 4 days at 37° C. and 5% CO2. 50 μl XTT complete reagent (50 parts XTT+1 part coupl. reagent mixed) was added and incubated at 37° C. Measurement of absorbance (cells plus supernatant) was done with the Tecan Safire after 3 h and 4 h. Inhibition of proliferation was calculated compared to medium values set as 100%. EC50 values for gemcitabine and oxaliplatin were calculated in the GraphPad Prism program.

| SMILES | cell cycle effect [1] | effect of pretreatment on IMAB362 induced ADCC [2] | claudin18.2 expression versus medium cultivated cells [3] | level of viable cells versus medium cultivated cells [3] | cell growth [3] | sensitivity of cells to the agent [4] |
| --- | --- | --- | --- | --- | --- | --- |
| O=c1[nH]cc(F)c(=O)[nH]1 [5-FU, 5-fluoro-1H-pyrimidine-2,4-dione] | blocked predominantly in the S-phase |  |  |  |  |  |
| N.N.[Cl][Pt][Cl] [Cisplatin, cis-diaminedichloroplatinum(II)] |  | augments the potency of IMAB362 to induce ADCC | increased | lower level of viable cells |  |  |
| CC(=O)O[C@@]12CO[C@@H]1C[C@H](O)[C@@]1(C)C(=O)[C@H](O)C3=C(C)[C@@H](OC(=O)[C@H](O)[C@@H](NC(=O)OC(C)(C)C)c4ccccc4)C[C@@](O)([C@@H](OC(=O)c4ccccc4)[C@H]21)C3(C)C [Docetaxel, 1,7β,10β-trihydroxy-9-oxo-5β,20-epoxytax-11-ene-2α,4,13α-triyl 4-acetate 2-benzoate 13-{(2R,3S)-3-[(tert-butoxycarbonyl)-amino]-2-hydroxy-3-phenylpropanoate}] | cell cycle arrest in the G2-phase | augments the potency of IMAB362 to induce ADCC | increased | lower level of viable cells | dose dependent inhibition of cell growth |  |
| CCc1c2c(nc3ccc(OC(=O)N4CCC(N5CCCCC5)CC4)cc13)-c1cc3c(c(=O)n1C2)COC(=O)[C@]3(O)CC [Irinotecan, (S)-4,11-diethyl-3,4,12,14-tetrahydro-4-hydroxy-3,14-dioxo1H-pyrano[3′,4′:6,7]-indolizino[1,2-b]quinolin-9-yl-[1,4′-bipiperidine]-1′-carboxylate] | cell cycle arrest in the S/G2-phase | augments the potency of IMAB362 to induce ADCC | increased | lower level of viable cells | dose dependent inhibition of cell growth |  |
| O=C1[O][Pt]2([NH][C@@H]3CCCC[C@H]3[NH]2)[O]C1=O [oxaliplatin, [(1R,2R)-cyclohexane-1,2-diamine](ethanedioato-O,O′)platinum(II)] |  |  |  |  |  | most sensitive |
